Measured values: patent US7173004B2, “Macrocyclic isoquinoline peptide inhibitors of hepatitis C virus” (Bristol-Myers Squibb Company, priority 2003, dated 2007)
Counter-ions that a name gives are not always drawn.

system: HCV replicon (HCV 1b-377-neo replicon cells, Huh7); experiment: HCV replicon cell-based FRET assay; details: Hepatitis C virus, Huh-7
Experimental: HCV Replion assays were utilized in the present invention, and were prepared, conducted and validated as follows:
An HCV replicon whole cell system was established as described by Lohmann V, Korner F, Koch J, Herian U, Theilmann L, Bartenschlager R., Science 285(5424): 110–3 (1999). This system enabled us to evaluate the effects of our HCV Protease compounds on HCV RNA replication. Briefly, using the HCV strain 1B sequence described in the Lohmann paper (Assession number: AJ238799), an HCV cDNA was synthesized by Operon Technologies, Inc. (Alameda, Calif.), and the full-length replicon was then assembled in plasmid pGem9zf(+) (Promega, Madison, Wis.) using standard molecular biology techniques. The replicon consists of (i) the HCV 5′ UTR fused to the first 12 amino acids of the capsid protein, (ii) the neomycin phosphotransferase gene (neo), (iii) the IRES from encephalomyocarditis virus (EMCV), and (iv) HCV NS3 to NS5B genes and the HCV 3′ UTR. Plasmid DNAs were linearized with ScaI and RNA transcripts were synthesized in vitro using the T7 MegaScript transcription kit (Ambion, Austin, Tex.) according to manufacturer's directions. To generate cell lines, 4×10^6 Huh-7 cells (kindly provided by R. Bartenschlager and available from Health Science Research Resources Bank, Japan Health Sciences Foundation) were electroporated (GenePulser System, Bio-Rad) with 10 microgram(“μg”) of RNA transcript and plated into 100-mm dishes. After 24 h, selective media containing 1.0 milligrams/milliliter (“mg/ml”) G418 was added and media was changed every 3 to 5 days. Approximately 4 weeks after electroporation, small colonies were visible which were isolated and expanded for further analysis. These cell lines were maintained at 37° C., 5% CO2, 100% relative humidity in DMEM (Cat# 11965-084) Gibco-BRL, Rockville, Md., with 10% heat inactivated calf serum (Sigma), 10 ml of 100× penicillin/streptomycin (Cat# 15140-122) Gibco-BRL, Rockville, Md., Geneticin (Cat# 10131-027) Gibco-BRL, Rockville, Md. at 1 mg/ml. One of the cell lines (deposited as ATCC Accession No. PTA-4583 in the American Type Culture Collection) which had approximately 3,000 copies of HCV replicon RNA/cell was used for development of the assay (HCV 1b-377-neo replicon cells).
Huh7 cells, constitutively expressing the HCV replicon, were grown in Dulbecco's Modified Eagle Media (DMEM) containing 10% Fetal calf serum (FCS) and 1 mg/ml G418 (Gibco-BRL). Cells were seeded the night before (1.5×10^4 cells/well) in 96-well tissue-culture sterile plates. Compound and no compound controls were prepared in DMEM containing 4% FCS, 1:100 Penicillin/Streptomysin, 1:100 L-glutamine and 5% DMSO in the dilution plate (0.5% DMSO final concentration in the assay). Compound/DMSO mixes were added to the cells and incubated for 4 days at 37° C. After 4 days, cells were first assessed for cytotoxicity using alamar Blue (Trek Diagnotstic Systems) for a CC50 reading. The toxicity of compound (CC50) was determined by adding 1/10th volume of alamar Blue to the media incubating the cells. After 4 hr, the fluorescence signal from each well was read, with an excitation wavelength at 530 nm and an emission wavelength of 580 nm, using the Cytofluor Series 4000 (Perspective Biosystems). Plates were then rinsed thoroughly with Phosphate-Buffered Saline (PBS) (3 times 150 μl). The cells were lysed with 25 μl of a lysis assay reagent containing an HCV protease substrate (5× cell Luciferase cell culture lysis reagent (Promega #E153A) diluted to 1× with distilled water, NaCl added to 150 mM final, the FRET peptide diluted to 10 μM final from a 2 mM stock in 100% DMSO). The HCV protease substrate (FRET peptide; AnaSpec, Inc. cat #22991, described by Taliani et al. in Anal. Biochem. 240(2):60–67 (1996)) contains a fluorescence donor, EDANS, near one end of the peptide and an acceptor, DABCYL, near the other end. […]

`CCC1(S(=O)(=O)NC(=O)C23CC2C=CCCCOC(C)C(NC(=O)OCC(C)(C)C)C(=O)N2CC(Oc4nccc5cc(OC)ccc45)CC2C(=O)N3)CC1` (stereo not shown) [Compound 71] and `COc1ccc2c(OC3CC4C(=O)NC5(C(=O)NS(=O)(=O)C6(C)CC6)CC5C=CCCCOC(C)C(NC(=O)OCC(C)(C)C)C(=O)N4C3)nccc2c1` (stereo not shown) [Compound 67] fall in the same range of EC50: 50 to 500 nM for the first, 50 to 500 nM for the second.

`COc1ccc2c(OC3CC4C(=O)NC5(C(=O)NS(=O)(=O)C6(C)CC6)CC5C=CCCCOC(C)C(NC(=O)OC(C)C)C(=O)N4C3)nccc2c1` (stereo not shown) [Compound 68] and `CCC1(S(=O)(=O)NC(=O)C23CC2C=CCCCOC(C)C(NC(=O)OC(C)C)C(=O)N2CC(Oc4nccc5cc(OC)ccc45)CC2C(=O)N3)CC1` (stereo not shown) [Compound 72] fall in the same range of EC50: 50 to 500 nM for the first, 50 to 500 nM for the second.

`COc1ccc2c(OC3CC4C(=O)NC5(C(=O)NS(=O)(=O)C6(C)CC6)CC5C=CCCCSCC(NC(=O)OCC(C)(C)C)C(=O)N4C3)nccc2c1` (stereo not shown) [Compound 42] and `COc1ccc2c(OC3CC4C(=O)NC5(C(=O)NS(=O)(=O)C6(C)CC6)CC5C=CCCCSCC(NC(=O)OC(C)C)C(=O)N4C3)nccc2c1` (stereo not shown) [Compound 41] cannot be ordered by EC50: less than 50 nM for the first, less than 50 nM for the second.

Compared with `O=C(CC1CC1)NC1CCCCCC=CC2CC2(C(=O)NS(=O)(=O)C2CC2)NC(=O)C2CC(Oc3nccc4ccccc34)CN2C1=O` (stereo not shown) [Compound 22], `CC(=O)NC1CCCCCC=CC2CC2(C(=O)NS(=O)(=O)C2CC2)NC(=O)C2CC(Oc3nccc4ccccc34)CN2C1=O` (stereo not shown) [Compound 26] is higher in EC50: less than 50 nM for the first, 50 to 500 nM for the second. The first is the more potent here.

First: CC(C)S(=O)(=O)NC(=O)[C@@]12C[C@H]1/C=C\CCCCC[C@H](NC(=O)OC(C)(C)C)C(=O)N1C[C@H](Oc3nccc4ccccc34)C[C@H]1C(=O)N2 [Compound 3, [18-(Isoquinolin-1-yloxy)-2,15-dioxo-4-(propane-2-sulfonylaminocarbonyl)-3,16-diaza-tricyclo-[14.3.0.0^4,6]nonadec-7-en-14-yl]-carbamic acid tert-butyl ester]
Second: CC(C)(C)OC(=O)N[C@H]1CCCCC/C=C\[C@@H]2C[C@@]2(C(=O)NS(=O)(=O)C2(C)CC2)NC(=O)[C@@H]2C[C@@H](Oc3nccc4ccccc34)CN2C1=O [Compound 8, [18-(Isoquinolin-1-yloxy)-4-(1-methyl-cyclopropanesulfonylaminocarbonyl)-2,15-dioxo-3,16-diaza-tricyclo[14.3.0.0^4,6]nonadec-7-en-14-yl]-carbamic acid tert-butyl ester]
The EC50 of the first is higher: 50 to 500 nM for the first, less than 50 nM for the second. The second is the more potent here.

`CCC1(S(=O)(=O)NC(=O)C23CC2C=CCOCCCC(NC(=O)OC(C)(C)C)C(=O)N2CC(Oc4nccc5cc(OC)ccc45)CC2C(=O)N3)CC1` (stereo not shown) [Compound 30] and `CCC1(S(=O)(=O)NC(=O)C23CC2C=CCCCCCC(NC(=O)OC(C)(C)C)C(=O)N2CC(Oc4nccc5cc(OC)ccc45)CC2C(=O)N3)CC1` (stereo not shown) [Compound 54] cannot be ordered by EC50: less than 50 nM for the first, less than 50 nM for the second.

First: COc1ccc2c(OC3CC4C(=O)NC5(C(=O)NS(=O)(=O)C6CC6)CC5C=CCCCOC(C)C(NC(=O)NC5CCCC5)C(=O)N4C3)nccc2c1 (stereo not shown) [Compound 65]
Second: COc1ccc2c(OC3CC4C(=O)NC5(C(=O)NS(=O)(=O)C6CC6)CC5C=CCCCOC(C)C(NC(=O)OC(C)(C)C)C(=O)N4C3)nccc2c1 (stereo not shown) [Compound 62]
The EC50 of the first is lower: less than 50 nM for the first, 50 to 500 nM for the second.

First: CS(=O)(=O)NC1CCCCCC=CC2CC2(C(=O)NS(=O)(=O)C2CC2)NC(=O)C2CC(Oc3nccc4ccccc34)CN2C1=O (stereo not shown) [Compound 25]
Second: N[C@H]1CCCCC/C=C\[C@@H]2C[C@@]2(C(=O)NS(=O)(=O)C2CC2)NC(=O)[C@@H]2C[C@@H](Oc3nccc4ccccc34)CN2C1=O [Compound 11, Cyclopropanesulfonic acid [14-amino-18-(isoquinolin-1-yloxy)-2,15-dioxo-3,16-diaza-tricyclo[14.3.0.0^4,6]nonadec-7-ene-4-carbonyl]-amide bis hydrochloride]
The EC50 of the first is higher: 500 to 5000 nM for the first, 50 to 500 nM for the second. The second is the more potent here.

First: COc1ccc2c(OC3CC4C(=O)NC5(C(=O)NS(=O)(=O)C6(C)CC6)CC5C=CCCCS(=O)(=O)CC(NC(=O)OC(C)(C)C)C(=O)N4C3)nccc2c1 (stereo not shown) [Compound 49]
Second: COc1ccc2c(O[C@@H]3C[C@H]4C(=O)N[C@]5(C(=O)NS(=O)(=O)C6CC6)C[C@H]5/C=C\CCCS(=O)(=O)C[C@H](NC(=O)OC(C)(C)C)C(=O)N4C3)nccc2c1 [Compound 19]
The EC50 of the first is higher: 500 to 5000 nM for the first, 50 to 500 nM for the second.

`COc1ccc2c(OC3CC4C(=O)NC5(C(=O)NS(=O)(=O)C6CC6)CC5C=CCOCCCC(NC(=O)OC(C)C)C(=O)N4C3)nccc2c1` (stereo not shown) [Compound 31] and `COc1ccc2c(OC3CC4C(=O)NC5(C(=O)NS(=O)(=O)C6CC6)CC5C=CCOCCCC(NC(=O)OC(C)(C)C)C(=O)N4C3)nccc2c1` (stereo not shown) [Compound 28, [4-Cyclopropanesulfonylaminocarbonyl-18-(6-methoxy-isoquinolin-1-yloxy)-2,15-dioxo-10-oxa-3,16-diaza-tricyclo[14.3.0.0^4,6]nonadec-7-en-14-yl]-carbamic acid tert-butyl ester] cannot be ordered by EC50: less than 50 nM for the first, less than 50 nM for the second.

`COc1ccc2c(OC3CC4C(=O)NC5(C(=O)O)CC5C=CCCCSCC(NC(=O)OC(C)(C)C)C(=O)N4C3)nccc2c1` (stereo not shown) [Compound 18A, 14-tert-Butoxycarbonylamino-18-(6-methoxy-isoquinolin-1-yloxy)-2,15-dioxo-12-thia-3,16-diaza-tricyclo[14.3.0.0^4,6]nonadec-7-ene-4-carboxylic acid] and `COc1ccc2c(OC3CC4C(=O)NC5(C(=O)O)CC5C=CCOCCCC(NC(=O)OC(C)(C)C)C(=O)N4C3)nccc2c1` (stereo not shown) [Compound 27, 14-tert-Butoxycarbonylamino-18-(6-methoxy-isoquinolin-1-yloxy)-2,15-dioxo-10-oxa-3,16-diaza-tricyclo[14.3.0.0^4,6]nonadec-7-ene-4-carboxylic acid] fall in the same range of EC50: 500 to 5000 nM for the first, 500 to 5000 nM for the second.

Compared with `COc1ccc2c(O[C@@H]3C[C@H]4C(=O)N[C@]5(C(=O)O)C[C@H]5/C=C\CCCO[C@H](C)[C@H](NC(=O)OC(C)(C)C)C(=O)N4C3)nccc2c1` [Compound 61], `CCC1(S(=O)(=O)NC(=O)C23CC2C=CCCCOC(C)C(NC(=O)OC(C)(C)C)C(=O)N2CC(Oc4nccc5cc(OC)ccc45)CC2C(=O)N3)CC1` (stereo not shown) [Compound 70] is lower in EC50: 5000 to 50000 nM for the first, 50 to 500 nM for the second. The second is the more potent here.

`CC(C)(C)OC(=O)NC1CCCCCC=CC2CC2(C(=O)NS(=O)(=O)C2CC2)NC(=O)C2CC(Oc3nc(Cl)cc4ccccc34)CN2C1=O` (stereo not shown) [Compound 57] and `CC(C)(C)OC(=O)N[C@H]1CCCCC/C=C\[C@@H]2C[C@@]2(C(=O)NS(=O)(=O)C2CCC2)NC(=O)[C@@H]2C[C@@H](Oc3nccc4ccccc34)CN2C1=O` [Compound 9, [4-Cyclobutanesulfonylaminocarbonyl-18-(isoquinolin-1-yloxy)-2,15-dioxo-3,16-diaza-tricyclo[14.3.0.0^4,6]nonadec-7-en-14-yl]-carbamic acid tert-butyl ester] cannot be ordered by EC50: less than 50 nM for the first, less than 50 nM for the second.

First: COc1c(NC2CCCCCC=CC3CC3(C(=O)NS(=O)(=O)C3CC3)NC(=O)C3CC(Oc4nccc5ccccc45)CN3C2=O)c(=O)c1=O (stereo not shown) [Compound 21]
Second: CC1(OC(=O)NC2CCCCCC=CC3CC3(C(=O)NS(=O)(=O)C3CC3)NC(=O)C3CC(Oc4nccc5ccccc45)CN3C2=O)CC1 (stereo not shown) [Compound 59]
The EC50 of the first is higher: 50 to 500 nM for the first, less than 50 nM for the second.

`COc1ccc2c(OC3CC4C(=O)NC5(C(=O)NS(=O)(=O)C6(C)CC6)CC5C=CCOCCCC(NC(=O)NC5CCCC5)C(=O)N4C3)nccc2c1` (stereo not shown) [Compound 36] and `CCC1(S(=O)(=O)NC(=O)C23CC2C=CCOCCCC(NC(=O)NC2CCCC2)C(=O)N2CC(Oc4nccc5cc(OC)ccc45)CC2C(=O)N3)CC1` (stereo not shown) [Compound 38] cannot be ordered by EC50: less than 50 nM for the first, less than 50 nM for the second.

In the case of `CC(C)(C)OC(=O)NC1CSCCCC=CC2CC2(C(=O)NS(=O)(=O)C2CC2)NC(=O)C2CC(Oc3nccc4c(Cl)cccc34)CN2C1=O` (stereo not shown) [Compound 78], the EC50 is reported as less than 50 nM.
